Test results taken from paper PMC5541560, “A biomimetic semisynthesis enables structural elucidation of selaginellin U: a tautomeric cyclic alkynylphenol from Selaginella tamariscina” (Royal Society Open Science, 2017).

What was measured:
[1] = biological target: T1, β-site amyloid precursor protein cleaving enzyme 1 (BACE1) (Homo sapiens, UniProt P56817); assay: FRET peptide substrate assay (Sigma kit CS0010), purified baculovirus-expressed BACE1; assay type: biochemical
[2] = biological target: T1, β-site amyloid precursor protein cleaving enzyme 1 (BACE1); assay: biochemical; set-up: FRET peptide substrate cleavage assay (Sigma kit CS0010), purified baculovirus-expressed BACE1, inhibition
Protocol: Compounds 1–3 and 7–16 were tested for β-site amyloid precursor protein (APP) cleaving enzyme 1 (BACE1) inhibitory activity. BACE1 inhibitory evaluation was performed with a fluorescence resonance energy transfer (FRET) assay kit supplied by Sigma (Kit CS0010, St. Louis, USA). The kit used purified baculovirus-expressed BACE1 and FRET peptide substrates.

T1 sequence (P56817 46-457): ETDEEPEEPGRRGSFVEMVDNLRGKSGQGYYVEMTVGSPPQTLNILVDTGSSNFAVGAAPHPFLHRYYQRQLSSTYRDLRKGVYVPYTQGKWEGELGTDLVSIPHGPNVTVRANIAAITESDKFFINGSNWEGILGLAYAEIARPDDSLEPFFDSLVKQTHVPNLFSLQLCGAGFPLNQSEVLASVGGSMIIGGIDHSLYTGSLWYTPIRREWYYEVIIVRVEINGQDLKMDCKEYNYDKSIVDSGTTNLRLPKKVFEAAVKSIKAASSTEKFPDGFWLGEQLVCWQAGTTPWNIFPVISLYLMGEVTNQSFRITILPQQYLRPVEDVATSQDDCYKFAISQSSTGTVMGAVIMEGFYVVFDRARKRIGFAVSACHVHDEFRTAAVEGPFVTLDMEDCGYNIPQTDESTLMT

IC50 [1] | IC50 [2] | Structure (SMILES)
81.2 µM | – | O=C1C=CC(=C(c2ccc(O)cc2)c2c(-c3ccc(O)cc3)ccc(CO)c2C#Cc2ccc(O)cc2)C=C1 [compound 3, selaginellin]
– | > 100 µM | Cc1ccc(-c2ccc(O)cc2)c(C(=C2C=CC(=O)C=C2)c2ccccc2)c1C#Cc1ccc(O)cc1 [compound 12, selaginellin A]
– | > 100 µM | O=C1C=CC(=C(c2ccc(O)cc2)c2c(-c3ccc(O)cc3)ccc3c(=O)oc(-c4ccc(O)cc4)cc23)C=C1 [compound 2, selaginellin U]
48.9 µM | – | O=Cc1ccc(-c2ccc(O)cc2)c(C(=C2C=CC(=O)C=C2)c2ccc(O)cc2)c1C#Cc1ccc(O)cc1 [compound 16, selaginellin O]
– | > 100 µM | O=C1OC(c2ccc(O)cc2)(c2ccc(O)cc2)c2c1cccc2-c1ccc(O)cc1 [compound 1, selaginellin T]
– | > 100 µM | COc1ccc(C(=C2C=CC(=O)C=C2)c2c(-c3ccc(O)cc3)ccc(CO)c2C#Cc2ccc(O)cc2)cc1 [compound 15, selaginellin M]
– | > 100 µM | OCc1ccc2c(c1C#Cc1ccc(O)cc1)C(c1ccc(O)cc1)(c1ccc(O)cc1)c1cc(O)ccc1-2 [compound 7, selaginpulvilin A]
51.1 µM | – | Cc1ccc(-c2ccc(O)cc2)c(C(=C2C=CC(=O)C=C2)c2ccc(O)cc2)c1C#Cc1ccc(O)cc1 [compound 13, selaginellin B]
